The values below come from patent US20020173491A1, “DAPD combination therapy with inosine monophosphate dehydrogenase inhibitor” (priority 2000, published 2002).

For this assay, the system named is xxLAI strain of HIV-1. The experiment in a line: microbe, parasite or virus in culture. It counts as cell-based. The conditions noted are these: for Fold difference in EC50, 0.1 μM MPA: control vs with 0.1 μM MPA; for Fold difference in EC50, 0.25 μM MPA: control vs with 0.25 μM MPA (fold decrease); for Fold difference in EC50, 1 μM RBV: control vs with 1 μM RBV; for Fold difference in EC50, 5 μM RBV: control vs with 5 μM RBV; for Fold difference in EC50, 10 μM RBV: control vs with 10 μM RBV; for Fold difference in EC50, 20 μM RBV: control vs with 20 μM RBV (fold decrease). As to the method: Triplicate samples of compound were tested. MT2 cells were infected with xxLAI at a multiplicity of infection (MOI) of 0.03 for 3 hours at 37° C. in 5% CO2. The infected cells were plated at 3.0×10^4/well into a 96 well plated containing drug dilutions and incubated for 5 days at 37° C. in CO2. […] This method has been modified into a susceptibility assay and has been used in a variety of in vitro antiviral tests and is readily adaptable to any system with a lytic virus (Weislow, O. S., et. al. 1989). Using the absorption values of the cell controls as 100% protection and no drug, virus infected cells as 0% protection, a dose response curve is generated by plotting % protection on the Y axis and drug concentration on the X axis. From this curve EC50 values were determined.
Assays were performed in the MT2 cell line as described above in the XXT sensitivity assay section.
MPA was tested for activity against the xxLAI strain of HIV-1 in the laboratory adapted cell line MT2. Dilutions of MPA were made in cell culture media in a 96 well plate; the highest concentration tested was 1 μM. Triplicate samples of compound were tested. MT2 cells were infected with xxLAI at a multiplicity of infection (MOI) of 0.03 for 3 hours at 37° C. in 5% CO2. The infected cells were plated at 3.0×10^4/well into a 96 well plated containing drug dilutions and incubated for 5 days at 37° C. in CO2. The antiviral activity of MPA was determined using the XTT assay described above. This method has been modified into a susceptibility assay and has been used in a variety of in vitro antiviral tests and is readily adaptable to any system with a lytic virus (Weislow, O. S., et. al. 1989). Using the absorption values of the cell controls as 100% protection and no drug, virus infected cells as 0% protection, a dose response curve is generated by plotting % protection on the Y axis and drug concentration on the X axis. From this curve EC50 values were determined.
The concentrations of MPA used were 1, 0.5, 0.25, 0.1, and 0.01 μM. Assays were performed in the MT2 cell line as described in section 3.1.

Setting [1] is: Human immunodeficiency virus 1, MT2, read-out: Mean EC50, Control, MT2 cells, no MPA.
[2] abbreviates: Human immunodeficiency virus 1, MT2, read-out: Mean EC50, Control, MT2 cells, no RBV.
Setting [3] is: read-out: Mean EC50, 0.01 μM MPA, MT2 cells, with 0.01 μM MPA.
The mark [4] stands for this setting: read-out: Mean EC50, 0.1 μM MPA, MT2 cells, with 0.1 μM MPA.
Where [5] appears, read: read-out: Mean EC50, 0.25 μM MPA, MT2 cells, with 0.25 μM MPA.
Where [6] appears, read: read-out: Mean EC50, 1 μM RBV, MT2 cells, with 1 μM RBV.
The mark [7] stands for this setting: read-out: Mean EC50, 5 μM RBV, MT2 cells, with 5 μM RBV.
Setting [8] is: read-out: Mean EC50, 10 μM RBV, MT2 cells, with 10 μM RBV.
Where [9] appears, read: read-out: Mean EC50, 20 μM RBV, MT2 cells, with 20 μM RBV.

Where two headings read alike, the source gives them in different places.

The EC50 is the concentration that produces a half-maximal response. With `Nc1nc(N)c2ncn(C3COC(CO)O3)c2n1` (single isomer, unassigned; (-)) [DAPD], the EC50 runs as follows: under setting [1], 20 µM; under setting [2], 18.5 µM; under setting [3], 22 µM; under setting [4], 4.9 µM; under setting [5], 1.2 µM; under setting [6], 8.2 µM. For the same compound, the EC50 was 2.9 µM under setting [7], 1.6 µM under setting [8] and 1.3 µM under setting [9]. Further, the “Fold difference in EC50, 0.1 μM MPA” value (MT2 cells) is 4.1 fold. In addition, where the note is “MT2 cells”, the “Fold difference in EC50, 0.25 μM MPA” value is 16.7 fold. The “Fold difference in EC50, 1 μM RBV” value (MT2 cells) came to 2.25 fold. Further, the “Fold difference in EC50, 5 μM RBV” value (MT2 cells) is 6.4 fold. In addition, the “Fold difference in EC50, 10 μM RBV” value (MT2 cells) is recorded as 11.56 fold. For the same compound, for the setting “MT2 cells”, the “Fold difference in EC50, 20 μM RBV” value is listed as 14.2 fold.

Regarding `Nc1nc2c(ncn2C2COC(CO)O2)c(=O)[nH]1` (single isomer, unassigned; (-)) [DXG], the half-maximal effective concentration (EC50) runs as follows: under setting [1], 2.1 µM; under setting [2], 2.65 µM; under setting [3], 2.5 µM; under setting [4], 0.6 µM; under setting [5], 0.2 µM; under setting [6], 2.05 µM. Besides, the EC50 is 0.58 µM under setting [7], 0.5 µM under setting [8] and 0.22 µM under setting [9]. Moreover, under “MT2 cells”, the “Fold difference in EC50, 0.1 μM MPA” value came out at 3.5 fold. In addition, the “Fold difference in EC50, 0.25 μM MPA” value (MT2 cells) is 10.5 fold. Where the note is “MT2 cells”, the “Fold difference in EC50, 1 μM RBV” value stood at 1.29 fold. In addition, the “Fold difference in EC50, 5 μM RBV” value (MT2 cells) worked out at 4.57 fold. Also, the “Fold difference in EC50, 10 μM RBV” value (MT2 cells) was determined as 5.3 fold. Also, the “Fold difference in EC50, 20 μM RBV” value (MT2 cells) is reported as 12 fold.
